Data published in US20250120961A1, “P53 MODULATORS” (Nested Therapeutics, Inc., priority 2023, published 2025).
pEC50: −log10 of the molar value.

Biological target: His-tagged p53-Y220C DNA binding domain (Homo sapiens, UniProt P04637, Y220C)
Assay: Biochemical p53-Y220C and DNA binding assay (HTRF)
Conditions: inflection point of 10 points dose titration, 4 parameter curve fit; p53-Y220C DBD 100 nM, biotinylated dsDNA 200 nM, 27 to 29° C.; read-out: HTRF IP
Description: Biological Example 1. Biochemical p53-Y220C and DNA Binding Assay
The compounds of this invention can bind to p53-Y220C and increase the ability of the mutant p53 to bind to DNA at higher temperatures. His-tagged p53-Y220C DNA binding domain containing amino acid 94-312 is used to measure DNA binding activities in vitro with the sequence described below. (SEQ ID NO: 1: […]. Biotin labeled double strand DNA (dsDNA) containing consensus p53 binding sequence (SEQ ID NO: 2: Forward: 5′-(biotin)-[…]-3′; Reverse: 5′-(biotin)-[…]-3′) is used to measure protein-DNA binding activities. Compounds, His-tagged p53-Y220C DBD proteins (100 nM), and biotinylated dsDNA (200 nM) were mixed in ice-cold assay buffer containing DPBS, 20 mM NaCl, and 0.5% BAS, and incubated at 4° C. overnight in 384-well plate. Plates were transferred to incubator at 27 to 29° C. with constant shaking for 60 minutes. Equal volume of Homogeneous Time-Resolved Fluorescence (HTRF) dyes containing mAb anti-6HIS Tb cryptate gold and d2 labeled streptavidin in the assay buffer was added to each well and incubated at 27 to 29° C. with constant shaking for 60 minutes. The plate was read using Envision multimode plate reader. Reference compound 1 was used as high control and DMSO was used as low control. The percentage activation (A %) of protein-DNA binding by compounds was normalized by setting up high control (reference compound) as […] and low control (DMSO) as 0% (A %=(HTRF ratio of compound-HTRF ratio of low control)/(HTRF ratio of high control-HTRF ratio of low control)*500). 10 points dose titration curves for each compound were analyzed by 4 parameter curve fit and inflection point (IP) was reported. Reference compound 1 is shown below Table 1. Compounds of the invention are active in the HTRF assay. Data in Table 1 collected using Biological Example 1.

pEC50	Compound
< 6.00	CC[C@H](CO)O/N=C/c1sc2c(NC3CNCC3F)cccc2c1CC(F)(F)F (stereo in doubt) [Example 1-4, (E)-7-(((3S,4R)-4-fluoropyrrolidin-3-yl)amino)-3-(2,2,2-trifluoroethyl)benzo[b]thiophene-2-carbaldehyde O-((R)-1-hydroxybutan-2-yl) oxime]
6.00 to 7.00	CC(O)(CO/N=C/c1sc2c(N[C@@H]3CNC[C@@H]3F)cccc2c1CC(F)(F)F)c1ccccc1 (stereo in doubt) [Example 1-24, (E)-7-(((3R,4S)-4-fluoropyrrolidin-3-yl)amino)-3-(2,2,2-trifluoroethyl)benzo[b]thiophene-2-carbaldehyde O-(2-hydroxy-2-phenylpropyl) oxime]
6.00 to 7.00	CC[C@@H](O)CO/N=C/c1sc2c(N[C@@H]3CNC[C@@H]3F)cccc2c1CC(F)(F)F [Example 1-1, (E)-7-(((3R,4S)-4-fluoropyrrolidin-3-yl)amino)-3-(2,2,2-trifluoroethyl)benzo[b]thiophene-2-carbaldehyde O-((R)-2-hydroxybutyl) oxime]
< 6.00	CC[C@@H](CO)O/N=C/c1sc2c(N[C@@H]3CNC[C@@H]3F)cccc2c1CC(F)(F)F [Example 1-2, (E)-7-(((3R,4S)-4-fluoropyrrolidin-3-yl)amino)-3-(2,2,2-trifluoroethyl)benzo[b]thiophene-2-carbaldehyde O-((S)-1-hydroxybutan-2-yl) oxime]
6.00 to 7.00	CC[C@H](O)CO/N=C/c1sc2c(N[C@@H]3CNC[C@@H]3F)cccc2c1CC(F)(F)F [Example 1-3, (E)-7-(((3R,4S)-4-fluoropyrrolidin-3-yl)amino)-3-(2,2,2-trifluoroethyl)benzo[b]thiophene-2-carbaldehyde O-((S)-2-hydroxybutyl) oxime]
6.00 to 7.00	OC(CO/N=C/c1sc2c(N[C@@H]3CNC[C@@H]3F)cccc2c1CC(F)(F)F)C(F)(F)F (stereo partly drawn) [Example 1-5, (E)-7-(((3R,4S)-4-fluoropyrrolidin-3-yl)amino)-3-(2,2,2-trifluoroethyl)benzo[b]thiophene-2-carbaldehyde O-(3,3,3-trifluoro-2-hydroxypropyl) oxime]
6.00 to 7.00	OCC(O)CO/N=C/c1sc2c(N[C@@H]3CNC[C@@H]3F)cccc2c1CC(F)(F)F (stereo partly drawn) [Example 1-6, (E)-7-(((3R,4S)-4-fluoropyrrolidin-3-yl)amino)-3-(2,2,2-trifluoroethyl)benzo[b]thiophene-2-carbaldehyde O-(2,3-dihydroxypropyl) oxime]
> 7.00	CC(C)(O)CO/N=C/c1sc2c(N[C@@H]3CNC[C@@H]3F)cccc2c1CC(F)(F)F [Example 1-7, (E)-7-(((3R,4S)-4-fluoropyrrolidin-3-yl)amino)-3-(2,2,2-trifluoroethyl)benzo[b]thiophene-2-carbaldehyde O-(2-hydroxy-2-methylpropyl) oxime]
6.00 to 7.00	NCC(O)CO/N=C/c1sc2c(N[C@@H]3CNC[C@@H]3F)cccc2c1CC(F)(F)F (stereo partly drawn) [Example 1-8, (E)-7-(((3R,4S)-4-fluoropyrrolidin-3-yl)amino)-3-(2,2,2-trifluoroethyl)benzo[b]thiophene-2-carbaldehyde O-(3-amino-2-hydroxypropyl)oxime]
< 6.00	NCC(CO)O/N=C/c1sc2c(N[C@@H]3CNC[C@@H]3F)cccc2c1CC(F)(F)F (stereo partly drawn) [Example 1-9, (E)-7-(((3R,4S)-4-fluoropyrrolidin-3-yl)amino)-3-(2,2,2-trifluoroethyl)benzo[b]thiophene-2-carbaldehyde O-(1-amino-3-hydroxypropan-2-yl) oxime]
6.00 to 7.00	COCC(O)CO/N=C/c1sc2c(N[C@@H]3CNC[C@@H]3F)cccc2c1CC(F)(F)F (stereo partly drawn) [Example 1-10, (E)-7-(((3R,4S)-4-fluoropyrrolidin-3-yl)amino)-3-(2,2,2-trifluoroethyl)benzo[b]thiophene-2-carbaldehyde O-(2-hydroxy-3-methoxypropyl) oxime]
